Measured values: PubChem BioAssay (NCI)
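Five compound concentrations were applied to cells in 96-well plates for 48 hours; endpoints were derived by simple linear interpolation of the resulting dose-response curve. At the GI50, growth is halved. TGI: total growth inhibition.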

What was measured:
Assay in all cases: NCI tumour cell line growth inhibition, 48 h
786-0 renal = test system: 786-0 renal
A498 renal = test system: A498 renal
A549 NSCLC = test system: A549 NSCLC
ACHN renal = test system: ACHN renal
BT-549 breast = test system: BT-549 breast
CAKI-1 renal = test system: CAKI-1 renal
CCRF-CEM leukemia = test system: CCRF-CEM leukemia
COLO 205 colon = test system: COLO 205 colon
DU-145 prostate = test system: DU-145 prostate
EKVX NSCLC = test system: EKVX NSCLC
HCC-2998 colon = test system: HCC-2998 colon
HCT-116 colon = test system: HCT-116 colon
HCT-15 colon = test system: HCT-15 colon
HOP-62 NSCLC = test system: HOP-62 NSCLC
HOP-92 NSCLC = test system: HOP-92 NSCLC
HS 578T breast = test system: HS 578T breast
HT29 colon = test system: HT29 colon
IGROV1 ovarian = test system: IGROV1 ovarian
K-562 leukemia = test system: K-562 leukemia
KM12 colon = test system: KM12 colon
LOX IMVI melanoma = test system: LOX IMVI melanoma
M14 melanoma = test system: M14 melanoma
MALME-3M melanoma = test system: MALME-3M melanoma
MCF7 breast = test system: MCF7 breast
MDA-MB-231 breast = test system: MDA-MB-231 breast
MDA-MB-435 = test system: MDA-MB-435
MOLT-4 leukemia = test system: MOLT-4 leukemia
NCI-H226 lung = test system: NCI-H226 lung
NCI-H23 lung = test system: NCI-H23 lung
NCI-H460 lung = test system: NCI-H460 lung
NCI-H522 lung = test system: NCI-H522 lung
NCI/ADR-RES ovarian = test system: NCI/ADR-RES ovarian
OVCAR-3 ovarian = test system: OVCAR-3 ovarian
OVCAR-4 ovarian = test system: OVCAR-4 ovarian
OVCAR-5 ovarian = test system: OVCAR-5 ovarian
OVCAR-8 ovarian = test system: OVCAR-8 ovarian
PC-3 prostate = test system: PC-3 prostate
RPMI-8226 leukemia = test system: RPMI-8226 leukemia
RXF 393 renal = test system: RXF 393 renal
SF-268 CNS = test system: SF-268 CNS
SF-295 CNS = test system: SF-295 CNS
SF-539 CNS = test system: SF-539 CNS
SK-MEL-2 melanoma = test system: SK-MEL-2 melanoma
SK-MEL-28 melanoma = test system: SK-MEL-28 melanoma
SK-MEL-5 melanoma = test system: SK-MEL-5 melanoma
SK-OV-3 ovarian = test system: SK-OV-3 ovarian
SN12C renal = test system: SN12C renal
SNB-19 CNS = test system: SNB-19 CNS
SNB-75 CNS = test system: SNB-75 CNS
SR leukemia = test system: SR leukemia
SW-620 colon = test system: SW-620 colon
T-47D breast = test system: T-47D breast
TK-10 renal = test system: TK-10 renal
U251 CNS = test system: U251 CNS
UACC-257 melanoma = test system: UACC-257 melanoma
UACC-62 melanoma = test system: UACC-62 melanoma
UO-31 renal = test system: UO-31 renal

## Oc1[nH]c2cc(Cl)ccc2c1/C=c1/ccc2c(c1)N=C(c1cc(F)cc(F)c1)N=2
786-0 renal
  GI50: 3.31 µM
  TGI: 12.8 µM
A498 renal
  GI50: 1240 nM
  TGI: 6.36 µM
A549 NSCLC
  GI50: 1640 nM
  TGI: 5.44 µM
ACHN renal
  GI50: 4.99 µM
  TGI: 19.9 µM
BT-549 breast
  GI50: 2100 nM
  TGI: 10 µM
CAKI-1 renal
  GI50: 1730 nM
  TGI: 16.6 µM
CCRF-CEM leukemia
  GI50: 657 nM
  TGI: 3.47 µM
COLO 205 colon
  GI50: 2240 nM
  TGI: 5.29 µM
DU-145 prostate
  GI50: 1980 nM
  TGI: 4.45 µM
EKVX NSCLC
  GI50: 5.27 µM
  TGI: 32.4 µM
HCC-2998 colon
  GI50: 4.86 µM
  TGI: 17.2 µM
HCT-116 colon
  GI50: 1170 nM
  TGI: 3.17 µM
HCT-15 colon
  GI50: 3.37 µM
  TGI: 14.7 µM
HOP-62 NSCLC
  GI50: 1350 nM
  TGI: 8.44 µM
HOP-92 NSCLC
  GI50: 741 nM
  TGI: 8.16 µM
HS 578T breast
  GI50: 1550 nM
  TGI: 10.2 µM
HT29 colon
  GI50: 1720 nM
  TGI: 5.94 µM
IGROV1 ovarian
  GI50: 3.29 µM
  TGI: 17.9 µM
K-562 leukemia
  GI50: 821 nM
  TGI: 12.1 µM
KM12 colon
  GI50: 2200 nM
  TGI: 7.06 µM
LOX IMVI melanoma
  GI50: 2220 nM
  TGI: 15.2 µM
M14 melanoma
  GI50: 1520 nM
  TGI: 3.69 µM
MALME-3M melanoma
  GI50: 6.06 µM
  TGI: 27.4 µM
MCF7 breast
  GI50: 1620 nM
  TGI: 11.3 µM
MDA-MB-231 breast
  GI50: 2780 nM
  TGI: 12.3 µM
MDA-MB-435
  GI50: 570 nM
  TGI: 2380 nM
MOLT-4 leukemia
  GI50: 1450 nM
  TGI: 5.72 µM
NCI-H226 lung
  GI50: 5.78 µM
  TGI: 31 µM
NCI-H23 lung
  GI50: 2470 nM
  TGI: 13 µM
NCI-H460 lung
  GI50: 1640 nM
  TGI: 6.77 µM
NCI-H522 lung
  GI50: 1190 nM
  TGI: 3.38 µM
NCI/ADR-RES ovarian
  GI50: 2030 nM
  TGI: 6.75 µM
OVCAR-3 ovarian
  GI50: 1410 nM
  TGI: 3.3 µM
OVCAR-4 ovarian
  GI50: 4.25 µM
  TGI: 16.1 µM
OVCAR-5 ovarian
  GI50: 6.34 µM
  TGI: 21.5 µM
OVCAR-8 ovarian
  GI50: 2920 nM
  TGI: 10.3 µM
PC-3 prostate
  GI50: 2120 nM
  TGI: 8.5 µM
RPMI-8226 leukemia
  GI50: 2380 nM
  TGI: 6.28 µM
RXF 393 renal
  GI50: 2080 nM
  TGI: 6.27 µM
SF-268 CNS
  GI50: 2350 nM
  TGI: 11.7 µM
SF-295 CNS
  GI50: 509 nM
  TGI: 2840 nM
SF-539 CNS
  GI50: 2040 nM
  TGI: 5.96 µM
SK-MEL-2 melanoma
  GI50: 2080 nM
  TGI: 7.03 µM
SK-MEL-28 melanoma
  GI50: 2780 nM
  TGI: 13.6 µM
SK-MEL-5 melanoma
  GI50: 1680 nM
  TGI: 7.59 µM
SK-OV-3 ovarian
  GI50: 2380 nM
  TGI: 7.95 µM
SN12C renal
  GI50: 3.89 µM
  TGI: 16.5 µM
SNB-19 CNS
  GI50: 6.22 µM
  TGI: 26.2 µM
SNB-75 CNS
  GI50: 1600 nM
  TGI: 6.07 µM
SR leukemia
  GI50: 2220 nM
  TGI: 8.53 µM
SW-620 colon
  GI50: 1100 nM
  TGI: 9.32 µM
T-47D breast
  GI50: 4.27 µM
  TGI: 17.7 µM
TK-10 renal
  GI50: 5.53 µM
  TGI: 18.8 µM
U251 CNS
  GI50: 1060 nM
  TGI: 2890 nM
UACC-257 melanoma
  GI50: 927 nM
  TGI: 19.2 µM
UACC-62 melanoma
  GI50: 710 nM
  TGI: 12.4 µM
UO-31 renal
  GI50: 3.68 µM
  TGI: 19 µM
